These results are taken from US20060189678A1, “4,5-dihydronaphtho[1,2-b]thiophene derivative” (priority 2003, published 2006).

Test [1] has as its system Male KKAy mice (model for type 2 diabetes). Nature of the test: Triglyceride content in the liver of KKAy mice (Triglyceride E Test Wako). The note with it: n=6, subcutaneous 3 mg/5 mL/kg twice a day for 2 weeks, control group 61.7, healthy group 12.5, * P<0.05, ** P<0.01. The format is in vivo. The procedure:
(§1) Male KKAy mice (11 to 12 weeks old) (each n=6) were used as a model for type 2 diabetes. 11% sulfobutyl ether-β-cyclodextrin was added to the compounds of Examples 1 and 59, and these products were administered subcutaneously in a dose of 3 mg/5 mL/kg, twice a day, continuously for 2 weeks. A group that was given just the vehicle was used as a control group, and male C57BL/6J mice (11 to 12 weeks old) (n=6) that had similarly been given the vehicle were used for a healthy group. The livers were collected, and a Triglyceride E Test Wako (Wako Pure Chemicals) was used to quantify the triglyceride content in the liver. […] Blood was also sampled from the orbital venous plexus, and the glucose level in the separated serum was quantified by enzyme method using a L-type Wako GLU2 (Wako Pure Chemicals).

Test [2] has the same test system. The test can be described thus: Serum glucose level in KKAy mice (enzyme method, L-type Wako GLU2). The format is in vivo. The note with it: n=6, subcutaneous 3 mg/5 mL/kg twice a day for 2 weeks, serum from orbital venous plexus blood, control group 532, healthy group 211, ** P<0.01. The method, then:
as §1

For the molecule `Cc1cc(C)c2c(c1)-c1sc(CCO)cc1CC2` [Example 59, 2-(2-hydroxyethyl)-4,5-dihydro-6,8-dimethylnaphtho[1,2-b]thiophene], the “Triglyceride content in liver” value in test [1] is given as 34.8** mg/g liver. Besides, in test [2], the Blood glucose level is reported as 269** mg/dL.

For the molecule `CC(=O)c1cc2c(s1)-c1cc(C)cc(C)c1CC2` [Example 1, 2-acetyl-4,5-dihydro-6,8-dimethylnaphtho[1,2-b]thiophene], in test [1], the “Triglyceride content in liver” value is reported as 47.5* mg/g liver. In addition, the Blood glucose level in test [2] is 491 mg/dL.
